# ± gives the expanded uncertainty stated by the source.
# Conditions: Liquid
structure (smiles),measurement,setting,value
CCCC[N+]1(C)CCCC1.O=S(=O)([N-]S(=O)(=O)C(F)(F)F)C(F)(F)F,mass density,"293.49 K, 101.33 kPa",1398 ± 1.6 kg/m3
same,mass density,"293.5 K, 10000 kPa",1404 ± 1.5 kg/m3
same,mass density,"293.5 K, 20000 kPa",1409.8 ± 1.9 kg/m3
same,mass density,"293.5 K, 30000 kPa",1415.5 ± 2.3 kg/m3
same,mass density,"293.5 K, 40000 kPa",1421 ± 2.8 kg/m3
same,mass density,"293.51 K, 1000 kPa",1398.6 ± 1.2 kg/m3
same,mass density,"293.51 K, 5000 kPa",1401 ± 1.4 kg/m3
same,mass density,"302.66 K, 101.33 kPa",1390.1 ± 1.5 kg/m3
same,mass density,"312.62 K, 101.33 kPa",1381.5 ± 1.5 kg/m3
same,mass density,"322.31 K, 10000 kPa",1379.7 ± 1.5 kg/m3
same,mass density,"322.31 K, 20000 kPa",1386 ± 1.9 kg/m3
same,mass density,"322.31 K, 40000 kPa",1398.2 ± 2.6 kg/m3
same,mass density,"322.32 K, 5000 kPa",1376.4 ± 1.3 kg/m3
same,mass density,"322.32 K, 30000 kPa",1392.2 ± 2.2 kg/m3
same,mass density,"322.33 K, 1000 kPa",1373.8 ± 1.2 kg/m3
same,mass density,"322.35 K, 101.33 kPa",1373.2 ± 1.5 kg/m3
same,mass density,"332.63 K, 101.33 kPa",1364.3 ± 1.5 kg/m3
same,mass density,"342.54 K, 101.33 kPa",1355.9 ± 1.5 kg/m3
same,mass density,"352.31 K, 20000 kPa",1361.5 ± 1.8 kg/m3
same,mass density,"352.31 K, 40000 kPa",1374.5 ± 2.5 kg/m3
same,mass density,"352.32 K, 101.33 kPa",1347.5 ± 1.4 kg/m3
same,mass density,"352.32 K, 10000 kPa",1354.5 ± 1.4 kg/m3
same,mass density,"352.33 K, 5000 kPa",1351 ± 1.3 kg/m3
same,mass density,"352.33 K, 30000 kPa",1368.1 ± 2.1 kg/m3
same,mass density,"352.35 K, 1000 kPa",1348.1 ± 1.2 kg/m3
same,mass density,"373.31 K, 5000 kPa",1333.2 ± 1.3 kg/m3
same,mass density,"373.31 K, 30000 kPa",1351.3 ± 2.1 kg/m3
same,mass density,"373.32 K, 1000 kPa",1330.1 ± 1.2 kg/m3
same,mass density,"373.33 K, 101.33 kPa",1329.5 ± 1.4 kg/m3
same,mass density,"373.33 K, 10000 kPa",1337 ± 1.4 kg/m3
same,mass density,"373.34 K, 20000 kPa",1344.2 ± 1.7 kg/m3
same,mass density,"373.34 K, 40000 kPa",1358 ± 2.4 kg/m3
same,mass density,"391.26 K, 1000 kPa",1314.9 ± 1.2 kg/m3
same,mass density,"391.29 K, 10000 kPa",1322 ± 1.4 kg/m3
same,mass density,"391.29 K, 30000 kPa",1337 ± 2 kg/m3
same,mass density,"391.3 K, 101.33 kPa",1314.1 ± 1.4 kg/m3
same,mass density,"391.3 K, 5000 kPa",1318.1 ± 1.3 kg/m3
same,mass density,"391.32 K, 20000 kPa",1329.6 ± 1.7 kg/m3
same,mass density,"391.32 K, 40000 kPa",1344 ± 2.4 kg/m3
same,mass density,"414.93 K, 101.33 kPa",1293.9 ± 1.3 kg/m3
same,mass density,"414.93 K, 5000 kPa",1298.1 ± 1.2 kg/m3
same,mass density,"414.93 K, 10000 kPa",1302.4 ± 1.4 kg/m3
same,mass density,"414.93 K, 20000 kPa",1310.5 ± 1.6 kg/m3
same,mass density,"414.93 K, 30000 kPa",1318.1 ± 1.9 kg/m3
same,mass density,"414.93 K, 40000 kPa",1325.6 ± 2.3 kg/m3
same,mass density,"414.94 K, 1000 kPa",1294.7 ± 1.2 kg/m3
CCCC[N+](C)(C)C.O=S(=O)([N-]S(=O)(=O)C(F)(F)F)C(F)(F)F [butyltrimethylammonium bis(trifluoromethylsulfonyl)imide],mass density,"293.48 K, 101.33 kPa",1396.3 ± 1.6 kg/m3
same,mass density,"293.48 K, 1000 kPa",1396.8 ± 1.2 kg/m3
same,mass density,"293.49 K, 5000 kPa",1398.8 ± 1.3 kg/m3
same,mass density,"293.5 K, 40000 kPa",1416.7 ± 2.7 kg/m3
same,mass density,"293.51 K, 10000 kPa",1401.4 ± 1.5 kg/m3
same,mass density,"293.51 K, 20000 kPa",1406.6 ± 1.9 kg/m3
same,mass density,"293.51 K, 30000 kPa",1411.7 ± 2.3 kg/m3
same,mass density,"302.84 K, 101.33 kPa",1387.9 ± 1.5 kg/m3
same,mass density,"312.82 K, 101.33 kPa",1379 ± 1.5 kg/m3
same,mass density,"322.29 K, 5000 kPa",1373.5 ± 1.3 kg/m3
same,mass density,"322.31 K, 20000 kPa",1382.2 ± 1.8 kg/m3
same,mass density,"322.32 K, 10000 kPa",1376.4 ± 1.5 kg/m3
same,mass density,"322.32 K, 40000 kPa",1393.2 ± 2.6 kg/m3
same,mass density,"322.33 K, 101.33 kPa",1370.5 ± 1.5 kg/m3
same,mass density,"322.33 K, 30000 kPa",1387.7 ± 2.2 kg/m3
same,mass density,"322.34 K, 1000 kPa",1371.1 ± 1.2 kg/m3
same,mass density,"332.75 K, 101.33 kPa",1361.3 ± 1.5 kg/m3
same,mass density,"342.67 K, 101.33 kPa",1352.5 ± 1.5 kg/m3
same,mass density,"352.27 K, 20000 kPa",1356.9 ± 1.8 kg/m3
same,mass density,"352.29 K, 10000 kPa",1350.5 ± 1.4 kg/m3
same,mass density,"352.3 K, 5000 kPa",1347.3 ± 1.3 kg/m3
same,mass density,"352.32 K, 40000 kPa",1369.1 ± 2.5 kg/m3
same,mass density,"352.34 K, 30000 kPa",1363 ± 2.1 kg/m3
same,mass density,"352.36 K, 101.33 kPa",1343.9 ± 1.4 kg/m3
same,mass density,"352.36 K, 1000 kPa",1344.6 ± 1.2 kg/m3
same,mass density,"373.28 K, 5000 kPa",1328.9 ± 1.2 kg/m3
same,mass density,"373.3 K, 10000 kPa",1332.4 ± 1.4 kg/m3
same,mass density,"373.3 K, 20000 kPa",1339.2 ± 1.7 kg/m3
same,mass density,"373.31 K, 101.33 kPa",1325.5 ± 1.4 kg/m3
same,mass density,"373.31 K, 30000 kPa",1345.8 ± 2 kg/m3
same,mass density,"373.33 K, 1000 kPa",1326.2 ± 1.1 kg/m3
same,mass density,"373.35 K, 40000 kPa",1352.3 ± 2.4 kg/m3
same,mass density,"391.25 K, 30000 kPa",1331.2 ± 2 kg/m3
same,mass density,"391.26 K, 10000 kPa",1316.9 ± 1.4 kg/m3
same,mass density,"391.27 K, 1000 kPa",1310.5 ± 1.1 kg/m3
same,mass density,"391.28 K, 101.33 kPa",1309.7 ± 1.4 kg/m3
same,mass density,"391.28 K, 20000 kPa",1324.2 ± 1.7 kg/m3
same,mass density,"391.31 K, 5000 kPa",1313.1 ± 1.2 kg/m3
same,mass density,"391.31 K, 40000 kPa",1338.1 ± 2.3 kg/m3
same,mass density,"414.89 K, 30000 kPa",1312.1 ± 1.9 kg/m3
same,mass density,"414.92 K, 40000 kPa",1319.5 ± 2.2 kg/m3
same,mass density,"414.93 K, 101.33 kPa",1288.6 ± 1.3 kg/m3
same,mass density,"414.94 K, 5000 kPa",1292.5 ± 1.2 kg/m3
same,mass density,"414.94 K, 10000 kPa",1296.6 ± 1.3 kg/m3
same,mass density,"414.94 K, 20000 kPa",1304.5 ± 1.6 kg/m3
same,mass density,"414.95 K, 1000 kPa",1289.4 ± 1.1 kg/m3

# — the NIST ThermoML archive (doi:10.1021/je8002817)
